In patent publication US11447486B2, “2-amino-benzimidazole derivatives and their use as 5-lipoxygenase and/or prostaglandin E synthase inhibitors” (INSTITUT PASTEUR KOREA, priority 2014, dated 2022):
Like-named read-outs stand apart in the source and are kept apart here.

Tests used:
human 5-LOX = biological target: T1, human 5-LOX (Homo sapiens, UniProt P09917); assay: 5-LOX enzyme activity, fluorescence method (5-HPETE, H2DCFDA); type: biochemical; settings: read-out: 5-LO (IC50)
T1 construct: purchased Cayman 60402; host or cells: insect cells (lysate)
T1 sequence (P09917 1-674): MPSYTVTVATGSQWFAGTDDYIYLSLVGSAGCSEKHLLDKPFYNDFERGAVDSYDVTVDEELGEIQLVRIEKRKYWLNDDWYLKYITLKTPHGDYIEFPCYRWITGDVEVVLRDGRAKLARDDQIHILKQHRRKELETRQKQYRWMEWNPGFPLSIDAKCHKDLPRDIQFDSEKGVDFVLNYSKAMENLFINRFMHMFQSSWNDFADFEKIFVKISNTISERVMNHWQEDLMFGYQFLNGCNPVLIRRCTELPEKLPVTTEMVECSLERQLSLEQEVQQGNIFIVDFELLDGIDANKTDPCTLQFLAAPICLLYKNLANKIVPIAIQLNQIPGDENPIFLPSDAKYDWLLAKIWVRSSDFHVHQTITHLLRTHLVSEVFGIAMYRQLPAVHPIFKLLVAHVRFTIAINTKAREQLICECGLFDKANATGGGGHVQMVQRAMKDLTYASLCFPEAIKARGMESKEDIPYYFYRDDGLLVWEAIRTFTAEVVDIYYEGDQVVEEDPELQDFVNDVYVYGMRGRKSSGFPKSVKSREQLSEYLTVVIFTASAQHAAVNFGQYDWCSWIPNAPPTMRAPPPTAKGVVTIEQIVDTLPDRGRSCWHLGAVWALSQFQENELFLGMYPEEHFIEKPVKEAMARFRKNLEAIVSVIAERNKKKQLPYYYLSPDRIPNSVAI
Outline: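 Compound (0.5 nM to 10 uM) pre-incubated 5 min with enzyme; reaction started with ATP (100 uM final) and arachidonic acid (3 uM final). All steps at room temperature, fluorescence read-out.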

[1] = test system: Rat basophilic leukemia (RBL) cells; assay: LTB4 secretion assay in RBL (rat basophilic leukemia cells); type: cell-based
Outline: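 Cells seeded 2×10^4/well the day before, then pre-incubated 15 min at 37 °C in EMEM/0.5% FBS with compound (5 nM to 100 uM). Stimulation with 2.5 uM arachidonic acid plus 5 uM A23187 (final) for 10 min at 37 °C; LTB4 in supernatant quantified by EIA.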

Rat whole blood (RWB) = assay: LTB4 secretion assay in RWB (rat whole blood); type: cell-based
Outline: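 Heparinized blood from male Sprague Dawley rats (6-9 weeks) diluted 1:1 in RPMI, pre-incubated 15 min at 37 °C with compound (2.5 nM to 50 uM). Stimulated with 10 uM calcium ionophore A23187 for 10 min at 37 °C, stopped with ice-cold PBS; LTB4 in supernatant quantified by EIA.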

Row | Compound | IC50 (human 5-LOX) [µM] | EC50 ([1]; Rattus norvegicus, RBL) [µM] | EC50 (Rat whole blood (RWB); Rattus norvegicus) [µM] | EC50 [1] [µM] | EC50 (Rat whole blood (RWB)) [µM]
1 | CCC(Nc1nc2ccc(NC3COC3)cc2n1C)c1ccc(Oc2ccc(C(F)(F)F)cn2)cc1F (stereo not drawn) [Compound 550] | < 1 | < 10 | < 10 | – | –
2 | COc1cc(Oc2ccc(Cl)cn2)ccc1CNc1nc2ccc(NC3COC3)cc2n1C [Compound 328] | < 1 | < 10 | < 10 | – | –
3 | COCCNc1nc2ccc(N3CCC(Oc4ccc(OC(F)(F)F)cc4)C3)cc2[nH]1 (stereo not drawn) [Compound 148] | < 1 | < 10 | > 20 | – | –
4 | Cn1nc(C(F)F)cc1Nc1ccc2nc(NCc3ccc(Oc4ncc(Cl)cn4)cc3)n(C)c2c1 [Compound 533] | < 1 | < 10 | < 10 | – | –
5 | Cn1c(NCc2ccc(Oc3ncc(C(F)(F)F)cn3)cc2)nc2ccc(N)cc21 [Compound 373] | < 1 | < 10 | < 10 | – | –
6 | Cc1cc(Nc2ccc3nc(NCc4ccc(Oc5ncc(OC(F)(F)F)cn5)cc4)n(C)c3c2)n[nH]1 [Compound 482] | < 1 | < 10 | < 10 | – | –
7 | Nc1ccc2c(c1)nc(N1CCCC1)n2CCOc1ccc(OC(F)(F)F)cc1 [Compound 55] | 1 to 10 | < 10 | > 20 | – | –
8 | Cn1nc(Nc2ccc3nc(NCc4ccc(Oc5ncc(Cl)cn5)cc4)n(C)c3c2)cc1CF [Compound 538] | < 1 | < 10 | < 10 | – | –
9 | Cn1c(NCc2ccc(Oc3ccc(Cl)cc3)cc2)nc2ccc(N3CC(F)(F)C3)cc21 [Compound 193] | > 10 | < 10 | < 10 | – | –
10 | Cc1cc(Nc2ccc3nc(NCc4ccc(Oc5ncc(Cl)cn5)cc4)n(C)c3c2)nn1C [Compound 465] | < 1 | < 10 | < 10 | – | –
11 | CN(c1ccc2nc(NCc3ccc(Oc4ccc(Cl)cn4)cc3)n(C)c2c1)C1COC1 [Compound 277] | < 1 | < 10 | < 10 | – | –
12 | Nc1ccc2nc(NCc3ccc(C(=O)c4ccccc4)cc3)[nH]c2c1 [Compound 106] | < 1 | < 10 | < 10 | – | –
13 | CN(C)c1ccc2nc(NCc3ccc(Oc4ccc(Cl)cn4)cc3)n(C)c2c1 [Compound 253] | < 1 | < 10 | < 10 | – | –
14 | Nc1ccc2nc(N)n(Cc3ccc(COc4ccc(Cl)cn4)cc3)c2c1 [Compound 249] | < 1 | < 10 | < 10 | – | –
15 | Cc1cc(CNc2nc3ccc(NC4COC4)cc3n2C)cc(C)c1Oc1ncc(Cl)cn1 [Compound 418] | < 1 | > 20 | > 20 | – | –
16 | Cn1c(NCc2ccc(OCc3ccc(Cl)cn3)cc2)nc2ccc(NC3COC3)cc21 [Compound 315] | < 1 | 10 to 20 | > 20 | – | –
17 | Cc1cc(Oc2ncc(Cl)cn2)cc(C)c1CNc1nc2ccc(NC3COC3)cc2n1C [Compound 417] | < 1 | > 20 | > 20 | – | –
18 | CCn1c(NCc2ccc(Oc3cnc(Cl)cn3)cc2)nc2ccc(Nc3cc(C(C)(C)C)[nH]n3)cc21 [Compound 514] | < 1 | < 10 | < 10 | – | –
19 | Cn1c(NCc2ccc(Oc3ccc(Cl)cc3)cn2)nc2ccc(NC3COC3)cc21 [Compound 298] | < 1 | < 10 | > 20 | – | –
20 | Cc1cc(Nc2cc(F)c3nc(NCc4ccc(Oc5ncc(Cl)cn5)cc4)n(C)c3c2)n[nH]1 [Compound 499] | < 1 | < 10 | < 10 | – | –
21 | CC(Nc1ccc2nc(N(C)C)[nH]c2c1)c1ccc(Oc2ccc(OC(F)(F)F)cc2)nc1 (stereo not drawn) [Compound 150] | < 1 | < 10 | > 20 | – | –

Row | Compound | IC50 (human 5-LOX) [µM] | EC50 ([1]; Rattus norvegicus, RBL) [µM] | EC50 (Rat whole blood (RWB); Rattus norvegicus) [µM] | EC50 [1] [µM] | EC50 (Rat whole blood (RWB)) [µM]
22 | Cn1c(NCc2ccc(Oc3ncccn3)cc2)nc2ccc(N)cc21 [Compound 344] | < 1 | > 20 | 10 to 20 | – | –
23 | Cn1c(NCc2ccc(Oc3ncc(Cl)cn3)cc2)nc2ccc(Nc3ccccn3)cc21 [Compound 447] | 1 to 10 | < 10 | < 10 | – | –
24 | CN(C)c1nc2cc(NCc3ccc(-c4ccnn4C)cc3)ccc2[nH]1 [Compound 196] | < 1 | < 10 | 10 to 20 | – | –
25 | CNc1nc2ccc(N)cc2n1Cc1ccc(Oc2ccc(Cl)cc2)cc1 [Compound 219] | < 1 | < 10 | > 20 | – | –
26 | CC(C)(C)Nc1ccc2nc(N)n(CCOc3ccc(OC(F)(F)F)cc3)c2c1 [Compound 93] | < 1 | < 10 | > 20 | – | –
27 | Nc1nc2ccc(NC3COC3)cc2n1Cc1ccc(Oc2ccc(Cl)cc2)cc1 [Compound 231] | < 1 | < 10 | < 10 | – | –
28 | CCn1c(NCc2ccc(Oc3ncc(C(F)(F)F)cn3)cc2)nc2ccc(Nc3cc(C(C)(C)C)[nH]n3)cc21 [Compound 513] | < 1 | – | – | < 10 | < 10
29 | Nc1ccc2[nH]c(NCc3ccc(S(=O)(=O)c4ccc(Cl)cc4)cc3)nc2c1 [Compound 129] | < 1 | < 10 | > 20 | – | –
30 | Cn1c(NCc2ccc(Oc3ncccn3)cc2)nc2ccc(NC3COC3)cc21 [Compound 345] | < 1 | > 20 | < 10 | – | –
31 | Cn1c(NCCOc2ccc(OC(F)(F)F)cc2Cl)nc2cc(N)ccc21 [Compound 57] | < 1 | < 10 | > 20 | – | –
32 | Cc1cc(Nc2ccc3nc(NCc4ccc(Oc5ncc(Cl)cn5)cc4)n(C)c3c2)n[nH]1 [Compound 415] | < 1 | < 10 | < 10 | – | –
33 | Cn1c(NCc2ccc(Oc3ccc(Cl)cn3)cc2)nc2c(F)cc(NC3COC3)cc21 [Compound 553] | < 1 | < 10 | < 10 | – | –
34 | CC(Nc1nc2cc(N)ccc2[nH]1)c1ccc(Cl)cc1Cl (stereo not drawn) [Compound 74] | < 1 | < 10 | 10 to 20 | – | –
35 | CN(C)c1nc2ccc(NCc3ccc(OCc4ncco4)cc3)cc2[nH]1 [Compound 233] | < 1 | < 10 | < 10 | – | –
36 | Cn1ccc(Nc2ccc3nc(NCc4ccc(Oc5ccc(Cl)cn5)cc4)n(C)c3c2)n1 [Compound 413] | < 1 | < 10 | < 10 | – | –
37 | CN(C)c1nc2ccc(N3CCC(C(=O)c4ccc(OC(F)(F)F)cc4)C3)cc2[nH]1 (stereo not drawn) [Compound 190] | < 1 | < 10 | > 20 | – | –
38 | CCC(Nc1nc2ccc(Nc3cc(C)[nH]n3)cc2n1C)c1ccc(Oc2ncc(C(F)(F)F)cn2)cc1F (stereo not drawn) [Compound 541] | < 1 | < 10 | < 10 | – | –
39 | Nc1ccc2nc(N)n(Cc3ccc(Oc4ccc(Cl)nc4)cc3)c2c1 [Compound 238] | < 1 | < 10 | < 10 | – | –
40 | Cn1c(NCc2ccc(Oc3ccc(F)cn3)cc2)nc2ccc(NC3COC3)cc21 [Compound 302] | < 1 | < 10 | 10 to 20 | – | –
41 | Cc1cc(Nc2ccc3nc(NCc4ccc(Oc5ncc(Cl)cn5)cc4)[nH]c3c2)n[nH]1 [Compound 470] | < 1 | < 10 | < 10 | – | –
42 | Nc1ccc2nc(N3CCC3)n(CCOc3ccc(OC(F)(F)F)cc3)c2c1 [Compound 68] | < 1 | < 10 | > 20 | – | –
